# Reference: publication PMC4995014, “Identification of ABC Transporter Interaction of a Novel Cyanoquinoline Radiotracer and Implications for Tumour Imaging by Positron Emission Tomography” (PLoS ONE, 2016)
# Tests used:
# EGFR = system: EGFR; design: method as in PMID 20797871, PMID 24307532; conditions: cell-free; read-out: IC50 for inhibition of cell-free EGFR phosphorylation; cited from earlier work
# 3T3-MDR1 cells = test: SRB cell viability assay in 3T3-MDR1 cells (ABCB1 expressing); type: cell-based; conditions: GI50 3T3-MDR1 over GI50 3T3, without zosuquidar
# Protocol: (§1) Cell viability by the sulforhodamine B (SRB) assay was used to assess cell growth and cytotoxicity of test compounds [29]. Cells were seeded at densities of 3,500 to 5,000 cells per well in 96 well plates overnight and pre-treated for 1 h with ABC transporter modulators: 10 μM fumitremorgin C (FTC; in MCF7MX and MCF7 cells), or 0.3 μM of zosuquidar (in 3T3 and 3T3-MDR1). Cells were then treated with test compounds for 72 h, at 37°C. After drug treatment, cells were fixed by addition of 50% trichloroacetic acid (TCA), and the plates washed and dried to allow staining with 0.4% solution of sulforhodamine B (Sigma) in 1% acetic acid for 30 minutes. Excess dye was removed upon washing with 1% acetic acid. Plates were dried and bound protein was solubilised upon addition of 150 μL of 10 mM Tris base buffer. Absorbance was measured at 540 nm using Thermo Multiskan-Ex plate reader. Cell viability versus compound concentration curves were plotted as a percentage of control cells. The concentration of drug that gave 50% inhibition in cell growth (GI50) was extrapolated from these curves using the sigmoid curve fit with variable slope in Prism (GraphPad Prism version 5.01, GraphPad Software, San Diego California USA). Three to six replicate wells were used for each drug concentration and experiments were carried out on three separate occasions for each compound.
# ABCB1 (MDR1) = test: as above; type: cell-based; conditions: mouse, 3T3-MDR1 cells (ABCB1 expressing), 72 h, SRB
# Protocol: as §1
# [1] = molecular target: T1, EGFR Del E746-A750/T790M (PC9ER cells) (Homo sapiens, UniProt P00533, DEL746-750/T790M); test: Inhibition of EGFR autophosphorylation (p-EGFR Y1068, western blot) in PC9ER cells; type: cell-based
# T1 construct: endogenous in cells; host or cells: PC9ER (Dr Olivier Pardo, Imperial College London)
# T1 sequence (P00533 with tags, fused parts or gaps DEL746-750/T790M): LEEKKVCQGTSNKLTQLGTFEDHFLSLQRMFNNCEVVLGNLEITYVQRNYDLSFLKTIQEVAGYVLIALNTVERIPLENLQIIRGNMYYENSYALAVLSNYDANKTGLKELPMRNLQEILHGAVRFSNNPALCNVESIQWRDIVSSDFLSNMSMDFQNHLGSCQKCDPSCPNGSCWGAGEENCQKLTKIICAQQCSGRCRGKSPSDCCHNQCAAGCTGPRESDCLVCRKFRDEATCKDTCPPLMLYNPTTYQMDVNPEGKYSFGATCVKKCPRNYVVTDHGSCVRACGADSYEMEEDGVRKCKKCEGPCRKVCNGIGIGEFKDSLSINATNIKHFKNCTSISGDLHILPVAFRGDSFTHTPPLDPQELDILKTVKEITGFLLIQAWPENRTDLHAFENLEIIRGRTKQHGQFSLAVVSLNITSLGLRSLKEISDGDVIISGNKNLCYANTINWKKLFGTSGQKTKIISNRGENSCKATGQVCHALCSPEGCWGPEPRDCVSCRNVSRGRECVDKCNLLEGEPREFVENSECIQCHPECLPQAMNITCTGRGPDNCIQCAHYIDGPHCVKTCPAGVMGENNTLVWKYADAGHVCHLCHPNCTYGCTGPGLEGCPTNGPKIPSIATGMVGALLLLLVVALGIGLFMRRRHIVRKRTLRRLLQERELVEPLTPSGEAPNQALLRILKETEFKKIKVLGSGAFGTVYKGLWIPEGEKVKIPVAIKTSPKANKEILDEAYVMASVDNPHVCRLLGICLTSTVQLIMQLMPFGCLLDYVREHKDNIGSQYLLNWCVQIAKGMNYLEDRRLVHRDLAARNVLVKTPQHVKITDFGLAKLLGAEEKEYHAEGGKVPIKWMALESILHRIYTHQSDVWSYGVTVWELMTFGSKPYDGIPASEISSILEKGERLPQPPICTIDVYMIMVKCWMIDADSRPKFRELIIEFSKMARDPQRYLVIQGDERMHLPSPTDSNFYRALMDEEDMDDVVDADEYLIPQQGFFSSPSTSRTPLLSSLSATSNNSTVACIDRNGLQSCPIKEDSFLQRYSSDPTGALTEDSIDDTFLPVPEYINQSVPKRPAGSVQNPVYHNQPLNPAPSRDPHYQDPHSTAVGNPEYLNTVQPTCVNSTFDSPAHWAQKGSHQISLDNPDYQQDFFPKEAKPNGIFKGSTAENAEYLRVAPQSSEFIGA
# Protocol: (§2) Affinity of the cyanoquinolines for EGFR was established by measuring their inhibition of EGFR autophosphorylation via western blot. Cells were seeded in 6 well plates and following 24 h of growth, were subject to overnight serum starvation. The cells were then treated with increasing concentrations of cyanoquinolines prepared in serum free growth media from a DMSO stock (final DMSO concentration < 1%) for 3 h at 37°C, and stimulated for receptor autophosphorylation by addition of 100 ng/mL of EGF during the last 15 minutes of drug incubation. After 3 h the cells were placed on ice, media removed and then the cells were washed two times with ice cold phosphate buffered saline (PBS). Lysates were analysed by western blot to measure changes to p-EGFR Y1068.
# (§3) Cells were collected into a microcentrifuge tube and sonicated for 30 seconds on ice. Cellular protein levels were assessed using a bicinchoninic acid (BCA) protein assay kit according to the manufacturer’s instructions (Thermo scientific). […] Samples were transferred to polyvinylidene difluoride (PVDF) membrane using Trans-Blot Turbo system BIO-RAD (Hercules, California, USA). […] The membranes were then incubated overnight with primary antibody prepared in 1% milk or 1% BSA in TBST. […] Membranes were washed a further three times for 10 minutes with TBST. Blots were visualised using chemoluminescence (ECL, GE Healthcare, Little Chalfont, UK) and developed on Amersham Hyperfilm ECL (GE Healthcare). β-Actin was used as a loading control.
# [2] = molecular target: T2, EGFR Del E746-A750 (H1650 cells) (Homo sapiens, UniProt P00533, DEL746-750); test: Inhibition of EGFR autophosphorylation (p-EGFR Y1068, western blot) in H1650 cells; type: cell-based; conditions: 3 h incubation, EGF stimulated
# T2 construct: endogenous in cells; host or cells: H1650 (ATCC)
# T2 sequence (P00533 with tags, fused parts or gaps DEL746-750): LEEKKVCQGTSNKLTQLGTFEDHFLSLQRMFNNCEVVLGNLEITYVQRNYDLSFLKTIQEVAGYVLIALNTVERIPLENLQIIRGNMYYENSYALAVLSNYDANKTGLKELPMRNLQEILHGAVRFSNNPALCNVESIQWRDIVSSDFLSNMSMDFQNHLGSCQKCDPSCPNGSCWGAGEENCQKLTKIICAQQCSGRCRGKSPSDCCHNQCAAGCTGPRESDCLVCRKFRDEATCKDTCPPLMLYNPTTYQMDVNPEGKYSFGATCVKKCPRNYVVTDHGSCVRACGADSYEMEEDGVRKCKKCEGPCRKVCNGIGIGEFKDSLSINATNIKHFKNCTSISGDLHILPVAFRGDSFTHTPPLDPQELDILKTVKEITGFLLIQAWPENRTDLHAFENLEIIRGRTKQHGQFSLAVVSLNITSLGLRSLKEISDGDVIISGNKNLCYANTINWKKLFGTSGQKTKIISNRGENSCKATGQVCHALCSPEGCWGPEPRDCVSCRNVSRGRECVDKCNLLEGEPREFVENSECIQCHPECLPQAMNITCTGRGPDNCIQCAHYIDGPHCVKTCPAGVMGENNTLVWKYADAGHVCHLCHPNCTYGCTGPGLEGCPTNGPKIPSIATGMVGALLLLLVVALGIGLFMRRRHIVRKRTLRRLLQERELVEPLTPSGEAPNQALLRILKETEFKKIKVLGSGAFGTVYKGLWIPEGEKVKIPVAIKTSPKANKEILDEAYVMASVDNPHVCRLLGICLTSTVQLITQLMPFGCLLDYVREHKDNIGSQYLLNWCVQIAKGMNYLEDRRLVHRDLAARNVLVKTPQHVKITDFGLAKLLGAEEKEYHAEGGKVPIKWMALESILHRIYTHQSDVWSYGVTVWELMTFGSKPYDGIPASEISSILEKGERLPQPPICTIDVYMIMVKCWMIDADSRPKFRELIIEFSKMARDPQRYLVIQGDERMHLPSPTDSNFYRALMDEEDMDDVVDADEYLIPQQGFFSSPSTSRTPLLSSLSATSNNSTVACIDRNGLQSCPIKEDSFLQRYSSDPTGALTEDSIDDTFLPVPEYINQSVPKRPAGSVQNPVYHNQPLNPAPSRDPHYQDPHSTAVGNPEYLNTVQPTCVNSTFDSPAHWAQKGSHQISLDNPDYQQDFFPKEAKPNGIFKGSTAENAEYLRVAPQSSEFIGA
# Protocol: as §2
# (§4) Cell lysates were prepared by addition of radioimmunoprecipitation assay (RIPA) buffer (50mM Tris-HCl pH 7.2, 150mM NaCl, 1% NP40, 1% sodium deoxycholate, 0.1% sodium dodecyl sulfate) supplemented with 1 x protease and phosphatase inhibitor cocktail (1mM 4-(2-Aminoethyl)benzenesulfonylfluoride hydrochloride, 800 nM aprotinin, 50 μM bestatin, 15 μM E-64, 5μM EDTA, 20 μM leupeptin, 10 μM pepstatin A; Thermo scientific, Waltham, Massachusetts, USA). […] Cellular protein levels were assessed using a bicinchoninic acid (BCA) protein assay kit according to the manufacturer’s instructions (Thermo scientific). […]
# MCF7 cells = test: SRB cell viability assay in MCF7 cells; type: cell-based; conditions: Homo sapiens, 72 h
# Protocol: as §1
# wildtype EGFR = molecular target: T3, wildtype EGFR (Homo sapiens, UniProt P00533); test: Inhibition of EGFR autophosphorylation in wildtype EGFR expressing A549 and H358 cells; type: cell-based; conditions: read-out: IC50 p-EGFR Y1068 in wildtype EGFR expressing cells
# T3 construct: host or cells: H358; A549
# T3 sequence (P00533 25-1210): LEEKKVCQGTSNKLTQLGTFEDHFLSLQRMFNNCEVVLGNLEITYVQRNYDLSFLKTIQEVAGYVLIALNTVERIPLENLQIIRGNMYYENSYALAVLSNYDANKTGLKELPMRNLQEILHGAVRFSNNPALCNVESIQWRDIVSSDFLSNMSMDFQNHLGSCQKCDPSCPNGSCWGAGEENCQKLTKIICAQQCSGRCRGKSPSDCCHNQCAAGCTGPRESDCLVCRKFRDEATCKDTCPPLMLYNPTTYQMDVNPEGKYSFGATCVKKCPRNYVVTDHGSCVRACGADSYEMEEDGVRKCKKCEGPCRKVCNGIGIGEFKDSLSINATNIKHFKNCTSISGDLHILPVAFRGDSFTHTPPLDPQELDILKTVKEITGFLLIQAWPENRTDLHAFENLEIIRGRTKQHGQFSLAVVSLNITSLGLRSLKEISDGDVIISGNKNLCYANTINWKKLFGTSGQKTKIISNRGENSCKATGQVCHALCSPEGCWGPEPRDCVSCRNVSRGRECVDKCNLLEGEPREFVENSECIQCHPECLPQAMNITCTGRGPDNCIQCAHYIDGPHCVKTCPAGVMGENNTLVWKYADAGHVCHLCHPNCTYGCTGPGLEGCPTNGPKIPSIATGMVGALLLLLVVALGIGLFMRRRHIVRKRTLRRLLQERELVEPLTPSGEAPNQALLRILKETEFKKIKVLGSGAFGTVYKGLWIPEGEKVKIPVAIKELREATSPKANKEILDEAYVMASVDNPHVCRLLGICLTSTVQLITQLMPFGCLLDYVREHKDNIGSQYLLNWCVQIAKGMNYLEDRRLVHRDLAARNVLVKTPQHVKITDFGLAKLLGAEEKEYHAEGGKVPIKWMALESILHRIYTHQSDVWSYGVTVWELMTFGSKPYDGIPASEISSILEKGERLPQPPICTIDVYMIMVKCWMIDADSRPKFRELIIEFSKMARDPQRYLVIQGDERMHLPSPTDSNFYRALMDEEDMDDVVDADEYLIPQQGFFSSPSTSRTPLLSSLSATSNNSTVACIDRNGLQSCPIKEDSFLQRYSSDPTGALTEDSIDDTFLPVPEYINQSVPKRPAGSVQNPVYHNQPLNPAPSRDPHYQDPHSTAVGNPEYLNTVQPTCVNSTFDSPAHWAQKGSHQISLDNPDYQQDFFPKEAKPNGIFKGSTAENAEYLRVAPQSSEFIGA
# Protocol: as §2, §4
# [3] = molecular target: T4, EGFR L858R/T790M (H1975 cells) (Homo sapiens, UniProt P00533, L858R/T790M); test: Inhibition of EGFR autophosphorylation (p-EGFR Y1068, western blot) in H1975 cells; type: cell-based; conditions: 3 h incubation, EGF stimulated
# T4 construct: host or cells: H1975
# T4 sequence (P00533 25-1210 T790M/L858R): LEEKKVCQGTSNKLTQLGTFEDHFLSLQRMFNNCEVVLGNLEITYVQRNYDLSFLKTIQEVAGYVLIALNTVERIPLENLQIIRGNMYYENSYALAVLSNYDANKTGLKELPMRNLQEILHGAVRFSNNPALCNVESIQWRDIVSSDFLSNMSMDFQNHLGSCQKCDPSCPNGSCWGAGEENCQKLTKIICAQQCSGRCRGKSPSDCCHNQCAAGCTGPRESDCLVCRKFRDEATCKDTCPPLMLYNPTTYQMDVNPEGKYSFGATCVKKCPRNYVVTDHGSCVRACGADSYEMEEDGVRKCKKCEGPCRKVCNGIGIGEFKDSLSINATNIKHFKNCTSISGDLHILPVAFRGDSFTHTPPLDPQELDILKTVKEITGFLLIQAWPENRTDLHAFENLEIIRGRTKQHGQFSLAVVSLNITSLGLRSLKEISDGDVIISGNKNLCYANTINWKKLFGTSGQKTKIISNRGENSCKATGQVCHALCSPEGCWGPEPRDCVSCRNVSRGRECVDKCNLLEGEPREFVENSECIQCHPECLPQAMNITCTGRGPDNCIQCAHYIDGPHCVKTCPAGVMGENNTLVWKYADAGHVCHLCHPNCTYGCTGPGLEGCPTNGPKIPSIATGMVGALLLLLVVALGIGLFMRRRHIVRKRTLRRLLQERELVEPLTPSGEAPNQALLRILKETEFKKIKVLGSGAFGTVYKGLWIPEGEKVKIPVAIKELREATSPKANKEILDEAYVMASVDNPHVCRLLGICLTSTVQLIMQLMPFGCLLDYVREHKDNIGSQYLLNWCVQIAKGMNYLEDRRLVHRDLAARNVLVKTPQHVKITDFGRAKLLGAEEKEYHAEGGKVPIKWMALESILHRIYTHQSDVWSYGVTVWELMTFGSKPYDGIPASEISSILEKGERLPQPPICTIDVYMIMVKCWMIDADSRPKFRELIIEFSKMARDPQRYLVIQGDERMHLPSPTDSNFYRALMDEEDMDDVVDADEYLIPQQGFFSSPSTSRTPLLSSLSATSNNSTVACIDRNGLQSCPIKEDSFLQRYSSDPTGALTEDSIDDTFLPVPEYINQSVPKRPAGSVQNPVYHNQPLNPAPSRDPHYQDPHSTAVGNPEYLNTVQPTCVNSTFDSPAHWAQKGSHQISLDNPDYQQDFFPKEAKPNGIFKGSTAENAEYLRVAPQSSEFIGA
# Protocol: as §2
# as §3, with “Blots were visualised using chemoluminescence (ECL, GE Healthcare, Little Chalfont, UK) and developed on Amersham Hyperfilm ECL (GE Healthcare). β-Actin was used as a loading control.” left out
smiles,measurement,setting,value
"CCOc1cc2ncc(C#N)c(Nc3ccc(F)c(Cl)c3)c2cc1NC(=O)/C=C/CNCc1cn(CCF)nn1 [FED6, (2E)-N-{4-[(3-chloro-4-fluorophenyl)amino]-3-cyano-7-ethoxyquinolin-6-yl}-4-({[1-(2-fluoroethyl)-1H-1,2,3-triazol-4-yl]methyl}amino)-but-2-enamide]",IC50,EGFR,1.8 nM
same,fold increase in GI50 in the ABCB1 overexpressing cell line,3T3-MDR1 cells,> 10 fold
same,GI50 at 72 h,"ABCB1 (MDR1); with zosuquidar 0.3 μM (1 h pre-treatment), pre-treatment with 0.3 μM zosuquidar",13600 ± 600 nM
same,GI50 at 72 h,ABCB1 (MDR1); without zosuquidar,> 100000 nM
same,IC50,"[1]; 3 h incubation, EGF stimulated",45 nM
same,fold higher IC50 (p-EGFR) in PC9ER compared to PC9,[1]; PC9ER versus isogenic PC9,2 fold
same,IC50,[2],40 nM
same,GI50,MCF7 cells; 1 h pre-treatment with 10 μM FTC,12300 ± 7100 nM
same,GI50,MCF7 cells; without FTC,12000 ± 6930 nM
same,IC50,wildtype EGFR,600 to 700 nM
same,IC50,[3],> 1000 nM
